Test results taken from patent publication US20090186915A1, “Compositions and methods for treatment of glioblastoma, gliosarcoma, NSCLC, and head and neck cancer” (Unibioscreen S. A., priority 2006, published 2009).

Columns and labels:
CFC-GEMM = assay: HALO hematotoxicity assay, human CFC-GEMM; type: cell-based; details: 7 days culture, iATP
Experimental: (§1) Investigation of the hematotoxic potential of UNBS5162 was undertaken by HemoGenix (Colorado Springs, Colo.). The effects of UNBS5162 on stem and progenitor cell populations from murine and human bone marrow were assessed using HALO (Hematopoietic/Hematotoxicity Assay through Luminescence Output) technology. Stem and hematopoietic progenitor cell populations were isolated from mouse and human bone marrow samples, plated at a concentration of 1.0×10^4 cells/well and cultured for 5 and 7 days, respectively, in the presence of growth factors and increasing concentrations of UNBS5162 ranging from 0.5 nM to 50 μM. The proliferative or growth potential of cell populations was determined from intracellular ATP (iATP) concentrations and a luciferin/luciferase bioluminescence signal detection system. All samples were assayed in eight replicates. The results are presented as estimated inhibitory concentration (IC) values.

HCT-15 = assay: MTT colorimetric assay, HCT-15 cells; type: cell-based; details: Homo sapiens, 72 h, 3 days of culturing, mean of six determinations, read-out: IC50 (μM) In Vitro Growth Inhibition
Experimental: (§2) The overall growth of human cancer cell lines was determined by means of the calorimetric MTT (3-[4,5-dimethylthiazol-2-yl]-diphenyl tetrazolium bromide; Sigma) assay, as detailed previously.

PC-3 [1] = assay: Quantitative videomicroscopy, PC-3; type: cell-based, human
Experimental: Use was made of computer-assisted phase-contrast microscopy (quantitative videomicroscopy) in the attempt to elucidate an overall picture of UNBS5162's mechanism of action. […] In addition, 10 μM UNBS5162 caused a marked enlargement in PC-3 cells by the end of the 6-day treatment period compared with the start of the experiment.

GM-CFC = assay: HALO hematotoxicity assay, human GM-CFC; type: cell-based; details: 7 days culture, iATP
Experimental: as §1

[2] = test system: orthotopic Hs683 xenograft; assay: Orthotopic Hs683 xenograft nude mice model, survival; type: in vivo; details: Temodal p.o. 40 mg/kg three times a week for three weeks followed by UNBS5162 i.v. 10 mg/kg once a week for three weeks
Experimental: In order to evaluate UNBS5162-mediated in vivo anti-tumor effect in glioma models, an orthotopis Hs683 model was used that was previously evidenced as expressing pro-angiogenic chemokines at the most high level. […] In line with this, an experiment combining Temodal to UNBS5162 was performed.
Thus, combining pro-autophagic therapy with an inhibitor of pro-angiogenic chemokines might represent a new manner to treat glioblastoma, at least some types that express high levels of pro-angiogenic chemokines.

Mk-CFC = assay: HALO hematotoxicity assay, human Mk-CFC; type: cell-based; details: 7 days culture, iATP
Experimental: as §1

PC-3 [3] = assay: Senescence-associated β-galactosidase staining, PC-3; type: cell-based, human; details: 10 μM, 72 hours
Experimental: After the indicated treatments, cells were washed in PBS, fixed for 3 to 5 minutes (at room temperature) in 2% formaldehyde/0.2% glutaraldehyde, washed and incubated at 37° C. (in the absence of CO2) with fresh senescence-associated β-Gal (SA-β-Gal) staining solution: 1 mg/ml of 5-bromo-4-chloro-3-indolyl […] (X-Gal; Sigma). Staining was evident within 2 to 4 hours and maximal after 12 to 16 hours. To detect lysosomal β-Gal, the citric acid/sodium phosphate used was pH 4.0. As described in the study of Dimri et al. [Proc Natl Acad Sci USA. 1995; 92:9363-9367.], after fixing and staining with X-Gal, the number of cells positive for the SA-β-Gal activity (intense blue staining) was then counted independently by two different individuals (on 400 cells/plate). Representative photographs (original magnifications, ×20) of stained cells from different experimental treatments were taken. As a positive control for SA-β-Gal expression, Adriamycin-treated cells were used.
Human PC-3 and DU-145 prostate cancer cells cultured in 0 or 10 μM UNBS5162 or 20 nM Adriamycin for 72 hours were evaluated by SA-β-Gal staining. The data clearly indicate that 10 μM [but not 1 μM or 5×1 μM] […] TMZ, as an inducer of autophagy but not of senescence, was used as a negative control.

LoVo = assay: MTT colorimetric assay, LoVo cells; type: cell-based; details: Homo sapiens, 72 h, 3 days of culturing, mean of six determinations, read-out: IC50 (μM) In Vitro Growth Inhibition
Experimental: as §2

PC-3 [4] = assay: Apoptosis by Annexin V flow cytometry, PC-3; type: cell-based, human
Experimental: We used flow cytometry (according to the protocol found in Mijatovic et al. Neoplasia 2006) to determine the percentages of PC-3 and DU-145 positive cells for both Annexin V and propidium iodide and we observed that a maximum of 10% only of PC-3 or DU-145 cells underwent apoptotic processes following a treatment with 10 μM of the compound produced according to example 2 or example 7.
The determination of the percentage of cells undergoing apoptosis was performed using an Annexin V-FITC Apoptosis Detection Kit (Sigma) following the manufacturer's instructions. Each sample was evaluated in triplicate.

Work on CN(C)CCN1C(=O)c2cccc3cc(NC(N)=O)cc(c23)C1=O [UNBS5162, N-{2-[2-(dimethylamino)ethyl]-1,3-dioxo-2,3-dihydro-1H-benzo[de]isoquinolin-5-yl}urea] yielded an IC50 (CFC-GEMM; 168 h) of 2.57 µM, an IC90 (CFC-GEMM; 168 h) of 12.8 µM and an IC75 (CFC-GEMM) of 5.67 µM. For the same compound, the IC50 (HCT-15) was 28.8 µM, the “cell dynamics (videomicroscopy)” value (PC-3 [1]; 1 μM) was “induced no detectable changes” and the “cell population development (videomicroscopy)” value (PC-3 [1]; 10 μM, six days of observation) was “prevented PC-3 cell population development”. It also gave an IC50 (GM-CFC; 168 h) of 3.74 µM, an IC90 (GM-CFC; 168 h) of 19.9 µM and an IC75 (GM-CFC) of 8.12 µM. For the same compound, the “survival period of tumor bearing mice” value [2] was “significantly prolonged the survival period of tumor bearing mice”, the IC50 (Mk-CFC; 168 h) was 4.05 µM and the IC90 (Mk-CFC; 168 h) was 20.1 µM. For the same compound, the IC75 (Mk-CFC) was 9.22 µM, the SA-β-Gal expression (PC-3 [3]) was “Limited SA-β-Gal expression” and the IC50 (LoVo) was 8.9 µM. The “cells undergoing apoptotic processes (Annexin V and propidium iodide positive)” value (PC-3 [4]; 10 μM) was ≤ 10% and the “induction of real (early) apoptosis” value (PC-3 [4]; flow cytometry) was “does not induce real (early) apoptosis”.
